In PMC7999199, “Novel Cationic Meso-Arylporphyrins and Their Antiviral Activity against HSV-1” (Pharmaceuticals, 2021):

Assays:
Vero cells = test: Vero cell viability, MTT test, 72 h; type: cell-based, African green monkey; details: MTT; for Viability % ±s.d.: +F127 (Pluronic F-127), Vero, 3 days
Procedure: Before testing antiviral activity, the effect of porphyrins dissolved in PBS and Pluronic F-127 on the viability of Vero cells was evaluated. Cells were incubated for 72 h using different concentrations of porphyrins (0.39–100 μM). Viability was assessed using the MTT test (Figure S13, Table S1, Supplementary Information). The viability of Vero cells depends on the porphyrins’ structure and formulation.
Cell viability was assessed by MTT reduction assay. Briefly, confluent monolayer Vero cells in 96-well plates (15000 cells/well) were incubated for 72 h with different concentrations of the compounds ranging from 0.39 µM to 100 µM in DMEM-1% FCS at 36.8 °C in 5% CO2 atmosphere. Next, cells were incubated for 1 h with 1.0 mg/mL of 3-(4,5-dimethylthiazol-2-y1)-2,5-diphenyltetrazolium bromide (MTT, PanEco, Moscow, Russia) at 36.8 °C, and then the solution was removed, and precipitated formazan was diluted in DMSO (PanEco, Moscow, Russia). The solution was read on a spectrophotometer at 540 nm. For each concentration, the average cell viability was calculated from the data of three experiments with three replicates each and was expressed as a percentage compared to the untreated cells (100%).
Table s1. Vero cell viability after exposure to 3a, 3b, TMEPyP compounds dissolved in PBS and Pluronic F-127. Different concen-
trations of compounds were applied to the cell monolayer and after incubation for 3 days, the number of living cells was calculated
in the MTT test. Each point represents the mean ± standard deviation of three experiments with […] each. n.d. –not done.
Compound Concentration, µM/L Viability % ±s.d.

[1] = Micelle size of Pluronic F-127 formulations by dynamic light scattering; type: physicochemical; details: Pluronic F-127 micelles, concentration 3·10^−6 M
Procedure: The size of obtained micelles for the compounds 3a,b was determined by the dynamic light scattering (DLS) method. The micelle size for compounds 3a,b was 17.53 nm and 14.69 nm, respectively, at concentrations of 3·10^−6 M (Figure 4a,b). It has previously been reported that a similar micelle size increased the efficiency and circulation of the encapsulated drug in the blood due to the small scale, which avoided the capture of nanoparticles by the reticular endothelial system.
NMR (^1H and ^13C) spectra of the test solutions in CDCl3 or (CD3OD) were recorded on a Bruker MSL-300 pulse Fourier transform spectrometer (Bruker, Billerica, MA, USA) at frequencies of 300.3 and 75.49 MHz, respectively, with internal deuterium stabilization. Tetramethylsilane was used as an external standard. IR spectra (4000–500 cm^–1) were recorded on Infralyum FT 02 Fourier spectrometer (Lumex Instruments Research and Production Company, Moscow, Russia) with a resolution of 1 cm^−1. Samples were prepared as KBr tablets. Dynamic light scattering was measured using Malvern Zetasizer Nano ZS (Malvern, United Kingdom). […] Mass spectra were recorded using an 1100 LCMSD liquid chromatograph (Agilent Technologies, Santa Clara, CA, USA) equipped with a mass spectrometric chemical ionization detector at atmospheric pressure (HIAD, APCI, ESI) and with a UV spectrophotometric detector (DAD). […]

O=C(CCCCC[n+]1ccccc1)Oc1ccc(-c2c3nc(c(-c4ccc(OC(=O)CCCCC[n+]5ccccc5)cc4)c4ccc([nH]4)c(-c4ccc(OC(=O)CCCCC[n+]5ccccc5)cc4)c4nc(c(-c5ccc(OC(=O)CCCCC[n+]6ccccc6)cc5)c5ccc2[nH]5)C=C4)C=C3)cc1 [3b, 5,10,15,20-tetrakis(4-(6-pyridyl-n-hexanoyl)oxyphenyl)porphyrin tetrabromide]
Viability % ±s.d. (Vero cells; 0.39 µM/L): 97.6±6.9% | Viability % ±s.d. (Vero cells; 0.78 µM/L): 81.3±10.8% | Viability % ±s.d. (Vero cells; 1.56 µM/L): 82.7±19.5% | Viability % ±s.d. (Vero cells; 3.13 µM/L): 79.6±9.6% | Viability % ±s.d. (Vero cells; 6.25 µM/L): 63.4±8.1% | Viability % ±s.d. (Vero cells; 12.50 µM/L): 67.7±11.5% | Viability % ±s.d. (Vero cells; 25 µM/L): 58.4±4.4% | Viability % ±s.d. (Vero cells; 50 µM/L): 41.3±2.7% | Viability % ±s.d. (Vero cells; 100 µM/L): 25.0±1.9% | CC50 (Vero cells; Pluronic F-127 (F127) micellar formulation, Vero cells, 72 h): 27 µM | micelle size (DLS) [1]: 14.69 nm
